Measurements from US8722887B2, “Sulfonylpyrazole and sulfonylpyrazoline carboxamidine derivatives as 5-HT6 antagonists” (Abbvie Bahamas, Ltd., priority 2006, dated 2014).
Read-outs that look alike come from different tables or passages of the source.

Columns and labels:
[1] = target: T1, 5-HT6 receptor (Homo sapiens, UniProt P50406); test: In vitro affinity for human 5-HT6 receptors, [3H]-LSD binding in CHO cell membranes; set-up: host or cells: CHO/Gα16/mtAEQ/h5HT6-A1 (CHO AequoScreen recombinant cell line)
T1 sequence (P50406 whole entry): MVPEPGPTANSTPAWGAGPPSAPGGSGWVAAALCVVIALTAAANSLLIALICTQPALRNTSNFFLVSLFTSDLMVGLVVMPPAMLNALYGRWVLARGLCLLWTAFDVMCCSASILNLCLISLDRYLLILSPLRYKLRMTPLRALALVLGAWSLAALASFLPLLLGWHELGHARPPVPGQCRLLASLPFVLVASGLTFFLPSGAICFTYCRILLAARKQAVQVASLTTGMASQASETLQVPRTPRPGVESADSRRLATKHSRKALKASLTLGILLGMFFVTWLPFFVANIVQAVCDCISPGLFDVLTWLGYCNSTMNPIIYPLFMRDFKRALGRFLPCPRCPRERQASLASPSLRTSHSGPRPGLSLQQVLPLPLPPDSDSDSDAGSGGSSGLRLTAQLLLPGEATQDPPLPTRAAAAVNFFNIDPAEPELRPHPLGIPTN
Protocol: Affinity for human 5-HT6 receptors was measured in a membrane preparation of CHO-cells transfected with human 5-HT6 receptors by binding studies using [^3H]-N-Methyl-Lysergic acid diethylamide ([^3H]-LSD) as ligand. […] CHO/Gα16/mtAEQ/h5HT6-A1 cells were grown in T-flasks in CHO-S-SFM II medium (Gibco BRL), supplemented with 1% dialysed FCS, 2 mM L-glutamine, Geneticin 500 μg/ml and Zeocin 200 μg/ml. […] After thawing cells were centrifuged during 3 minutes at 1500 g at 4° C. […] The assay was established so as to achieve steady state conditions and to optimize specific binding. For the 5-HT6 receptor, membranes from 5.10^5 cells were incubated with 5.0 nM [^3H]-LSD at 37° C. for 30 minutes. Nonspecific binding was determined using 10^−5 M serotonin. Assays were terminated by vacuum filtration through glass fiber filters (GF/B) which had been pretreated with 0.5% polyethyleneimine. Total and bound radioactivity was determined by liquid scintillation counting. […] Compounds were tested at a 4 log concentration range; all determinations were performed as triplicates. IC50 values were determined by non-linear regression analysis using Hill equation curve fitting. The inhibition constants (Ki-values) were calculated from the Cheng-Preushoff equation: Ki=IC50:(1+L/Kd) wherein L represents the concentration radioligand ([^3H]-LSD) in the assay, and Kd the affinity of the radioligand for the receptor. Results are expressed as pKi-values, means±SD of at least three separate experiments.

[2] = target: T1, 5-HT6 receptor; test: In vitro functional activity (antagonism) on human 5-HT6 receptors, CHO-human-5HT6-Aequorin assay; assay type: cell-based; set-up: host or cells: CHO/Gα16/mtAEQ/h5HT6-A1 (CHO AequoScreen recombinant cell line)
Protocol: Human-5-HT6-Aequorin cells express mitochondrial targeted apo-Aequorin. Cells have to be loaded with coelanterazine, in order to reconstitute active Aequorin. […] This luminescent response is dependent on the agonist concentration. Luminescence is measured using the MicroBeta Jet (Perkin Elmer). Agonistic effects of compounds are expressed as pEC50. […] Compounds were tested at a 5 log concentration range, and 3 independent experiments were performed in duplicate.

[3] = [3H]-LSD 5.0 nM, membranes of CHO cells transfected with human 5-HT6, read-out: 5-HT6 pKi (converted)
[4] = antagonism of 10^-8 M α-methylserotonin induced luminescence, CHO-human-5HT6-Aequorin cells, read-out: 5-HT6 pA2 (converted)
[5] = antagonism of 10^-8 M α-methylserotonin induced luminescence, CHO-human-5HT6-Aequorin cells

Structure (SMILES) | Ki [1, 3] | Kb [2, 4] | also measured
CN/C(=N\S(=O)(=O)c1ccc(F)cc1)N1CCC(c2ccc(Cl)cc2)=N1 | – | – | melting point: 188 to 189 °C
CCN/C(=N\S(=O)(=O)c1ccc(Cl)cc1)N1CC(CC)C=N1 (stereo not shown) | – | – | melting point: 84 to 86 °C
CCN/C(=N\S(=O)(=O)c1cccc2ccccc12)N1CC(CC)C=N1 (stereo not shown) | – | – | melting point: 79 to 80 °C
CCN/C(=N\S(=O)(=O)c1ccccc1Cl)N1CCC(CC)=N1 | – | – | melting point: 91 to 93 °C
CCN/C(=N\S(=O)(=O)c1cccc(Cl)c1)N1N=CC(CC)C1c1ccccc1 (single isomer, unassigned) [cis(+)-153] | 1260 nM | – | –
CCN/C(=N\S(=O)(=O)c1cccc(Cl)c1)N1N=CC(CC)C1c1ccccc1 (single isomer, unassigned) [cis(−)-153] | 50.1 nM | – | –
CCN/C(=N\S(=O)(=O)c1cccc(Cl)c1)N1N=CC(CC)C1c1ccccc1 (single isomer, unassigned) [trans-(+)-153] | 126 nM | – | –
CCN/C(=N\S(=O)(=O)c1cccc(Cl)c1)N1N=CC(CC)C1c1ccccc1 (single isomer, unassigned) [trans-(−)-153] | 398 nM | – | –
CCC1C=NN(/C(N)=N/S(=O)(=O)c2c(Cl)nc3sccn23)C1 (single isomer, unassigned; (+)) [(+)123] | – | – | melting point: 146 to 147 °C
CCN/C(=N\S(=O)(=O)c1c(Cl)nc2sccn12)N1CC(CC)C=N1 (single isomer, unassigned; (+)) [(+)-41] | – | 1.26 nM | –
CCC1C=NN(/C(N)=N/S(=O)(=O)c2c(Cl)nc3sccn23)C1 (single isomer, unassigned; (-)) [(−)-123] | – | – | melting point: 176 to 178 °C
CCC1C=NN(/C(=N/S(=O)(=O)c2ccccc2Cl)N(CC)CC)C1 (stereo not shown) [compound 1] | – | – | Kb [2]: 316 nM
CCN/C(=N\S(=O)(=O)c1ccccc1Cl)N1CC(CC)C=N1 (stereo not shown) [compound 2, 2-Chloro-N-[ethylamino-(4-ethyl-4,5-dihydro-pyrazol-1-yl)-methylene]-benzenesulfon-amide] | 50.1 nM | 3.16 nM | –
CCC1C=NN(/C(N)=N/S(=O)(=O)c2ccccc2Cl)C1 (stereo not shown) [compound 3] | – | – | melting point: 161 to 163 °C
CCC1C=NN(/C(=N/S(=O)(=O)c2ccccc2Cl)N(C)C)C1 (stereo not shown) [compound 5] | – | – | melting point: 94 to 95 °C
CCC1C=NN(/C(=N/S(=O)(=O)c2ccccc2Cl)NCc2ccccc2)C1 (stereo not shown) [compound 13] | 79.4 nM | 200 nM | –
CCN/C(=N\S(=O)(=O)c1cccc(Cl)c1)N1CCC=N1 [compound 28] | 20 nM | 20 nM | 5-HT6 pA2 [2, 5]: 7.1
CCN/C(=N\S(=O)(=O)c1cccc(Cl)c1)N1CC(C)(C)C=N1 [compound 33, 3-Chloro-N-[(4,4-dimethyl-4,5-dihydro-pyrazol-1-yl)-ethylamino-methylene]-benzenesulfonamide] | 15.8 nM | 12.6 nM | –
CCN/C(=N\S(=O)(=O)c1cccc(Cl)c1)N1CCC(C)=N1 [compound 42] | – | – | Ki ([1]; 5-HT6 pKi): 200 nM; 5-HT6 pA2 [2, 5]: 6.9
CCN/C(=N\S(=O)(=O)c1cccs1)N1CC(CC)C=N1 (stereo not shown) [compound 51] | 126 nM | 200 nM | –
CCN/C(=N\S(=O)(=O)c1cccc2nsnc12)N1CC(CC)C=N1 (stereo not shown) [compound 78, Benzo[1,2,5]thiadiazole-4-sulfonic acid ethylamino-(4-ethyl-4,5-dihydro-pyrazol-1-yl)-methyleneamide] | 63.1 nM | 79.4 nM | –
CCN/C(=N\S(=O)(=O)/C=C/c1ccccc1)N1CC(CC)C=N1 (stereo not shown) [compound 83] | 79.4 nM | 63.1 nM | –
CCN/C(=N\S(=O)(=O)c1cc2ccccc2s1)N1CC(CC)C=N1 (stereo not shown) [compound 89] | 5.01 nM | 0.794 nM | –
CN/C(=N\S(=O)(=O)c1ccc(Cl)s1)N1CC(C)(C)C=N1 [compound 103] | 79.4 nM | 50.1 nM | –
CCN/C(=N\S(=O)(=O)c1ccc(Cl)s1)N1CC(C)(C)C(C)=N1 [compound 112] | 200 nM | 63.1 nM | –
CCN/C(=N\S(=O)(=O)c1cccc(Cl)c1)N1CC(c2ccccc2)C=N1 (stereo not shown) [compound 139] | 251 nM | 316 nM | –

Structure (SMILES) | Ki [1, 3] | Kb [2, 4] | also measured
CCN/C(=N\S(=O)(=O)c1cccc(Cl)c1)N1CC(c2ccccc2)C(C)=N1 (stereo not shown) [compound 140] | 200 nM | – | –
CCN/C(=N\S(=O)(=O)c1cccc(Cl)c1)N1N=CCC1c1ccco1 (stereo not shown) [compound 144] | 7.94 nM | – | 5-HT6 pA2 [2, 5]: 8.1
CCN/C(=N\S(=O)(=O)c1cccc(Cl)c1)N1N=CCC1c1cccnc1 (stereo not shown) [compound 145] | 31.6 nM | 12.6 nM | –
CCN/C(=N\S(=O)(=O)c1cccc(Cl)c1)N1N=CCC1c1ccoc1 (stereo not shown) [compound 146] | 20 nM | 39.8 nM | –
CCN/C(=N\S(=O)(=O)c1cccc(Cl)c1)N1N=CCC1c1ccccn1 (stereo not shown) [compound 147] | 316 nM | 794 nM | –
CCN/C(=N\S(=O)(=O)c1cccc(Cl)c1)N1N=CCC1c1ccncc1 (stereo not shown) [compound 148] | 501 nM | – | 5-HT6 pA2 [2, 5]: 6.9
CCN/C(=N\S(=O)(=O)c1cccc(Cl)c1)N1N=CCC1c1ccsc1 (stereo not shown) [compound 149] | 12.6 nM | 31.6 nM | –
CCN/C(=N\S(=O)(=O)c1cccc(Cl)c1)N1N=CCC1c1cccs1 (stereo not shown) [compound 150] | 31.6 nM | 31.6 nM | –
CCN/C(=N\S(=O)(=O)c1cccc(Cl)c1)N1N=C(C(C)C)CC1c1ccccc1 (stereo not shown) [compound 151] | 200 nM | 501 nM | –
CCN/C(=N\S(=O)(=O)c1cccc(Cl)c1)N1N=CC(C)C1c1ccccc1 (stereo not shown) [compound 152] | 158 nM | – | –
CCN/C(=N\S(=O)(=O)c1cccc(Cl)c1)N1N=CC(CC)C1c1ccccc1 (stereo not shown) [compound 153] | 158 nM | – | –
CCN/C(=N\S(=O)(=O)c1cccc(Cl)c1)N1N=CC2CN(C)CCC21 (stereo not shown) [compound 154] | 10 nM | 3.98 nM | –
CCN/C(=N\S(=O)(=O)c1cccc(Cl)c1)N1CC2(C=N1)CCN(C)CC2 [compound 157] | 6.31 nM | 7.94 nM | –
CN/C(=N\S(=O)(=O)c1cccc(Cl)c1)N1CC2(C=N1)CCOCC2 [compound 160] | 79.4 nM | 200 nM | –
N/C(=N\S(=O)(=O)c1cccc(Cl)c1)N1CC2(C=N1)CCOCC2 [compound 161] | 79.4 nM | 100 nM | –
CCN/C(=N\S(=O)(=O)c1c(Cl)nc2sccn12)N1CC2(C=N1)CCOCC2 [compound 162] | 63.1 nM | 12.6 nM | –
CN/C(=N\S(=O)(=O)c1c(Cl)nc2sccn12)N1CC2(C=N1)CCOCC2 [compound 163] | 251 nM | 10 nM | –
N/C(=N\S(=O)(=O)c1c(Cl)nc2sccn12)N1CC2(C=N1)CCOCC2 [compound 164] | 50.1 nM | 39.8 nM | –
CCN/C(=N\S(=O)(=O)c1ccc(Cl)s1)N1CC2(C=N1)CCOCC2 [compound 165] | 25.1 nM | 20 nM | –
CN/C(=N\S(=O)(=O)c1ccc(Cl)s1)N1CC2(C=N1)CCOCC2 [compound 166] | 100 nM | 79.4 nM | –
N/C(=N\S(=O)(=O)c1ccc(Cl)s1)N1CC2(C=N1)CCOCC2 [compound 167] | 63.1 nM | 31.6 nM | –
CCN/C(=N\S(=O)(=O)c1cccc(Cl)c1)N1CC(CCC(F)(F)F)(CCC(F)(F)F)C=N1 [compound 168] | 316 nM | – | –
CCN/C(=N\S(=O)(=O)N(C)c1ccccc1)N1CC(CC)C=N1 (stereo not shown) [compound 172] | 316 nM | – | –
CCN/C(=N\S(=O)(=O)c1ccc(N(C)C)cc1)N1CC(CC)C=N1 (stereo not shown) [compound 174] | 100 nM | – | –
CCN/C(=N\S(=O)(=O)c1ccccc1Cl)N1CCCC1 [reference compound] | – | – | Kb [2]: > 10000 nM
